# Patent US10434083B2, “Transmammary delivery of cyclooxygenase-2 inhibitors for analgesia in neonates” (Iowa State University Research Foundation, Inc., priority 2018, dated 2019)
# Read-outs that look alike come from different tables or passages of the source.
# Experiment: Firocoxib pharmacokinetics in sows following IM administration (Example 2)
# Type: in vivo, swine
# Details: for AUC(0-t) / AUC(0-inf) / CL/F / Cmax / MRT inf / Tmax / MRT last / Vd/F / half-life: female, Yorkshire×Landrace, plasma; for AUC(0-t) / AUC(0-inf): im; for MRT last: read-out: MRT0-last; for Vd/F: read-out: VZ/F; for half-life: read-out: plasma elimination half-life (T1/2λz), range over dose groups
# Description: Protocols involved intramuscular injection of Firocoxib to lactating sows at either 0.5, 1.0, 1.5 or 2 mg/kg, and analysis in sows and select piglets at 21 days post treatment. Pregnant Yorkshire×Landrace sows (mean±SEM bodyweight, 250.3±7.61 kg) that were approximately 1 week before farrowing were sourced from a commercial swine farm. Each sow was examined by a veterinarian to confirm that she was healthy and pregnant. A unique numerical ear tag (Allflex Global Ear Tags, Allflex USA, Inc., DFW Airport, TX) was placed in the right ear of each sow for identification. The sows were housed in a commercial swine operation at MVS (West Point, Nebr.) in accordance with the recommendations in the Guide for the Care and Use of Agricultural Animals in Agricultural Use and Research and Teaching (Guide for the Care and Use of Agricultural Animals in Agricultural Research and Teaching, 2010). Sows were placed in Quad- or Euro-style farrowing stalls (Thorp Equipment, Thorp, Wis.), depending on availability. Regardless of stall type, each sow was housed in a farrowing crate measuring 0.6 m×2.1 m. Quad and Euro crates had piglet creep areas of 7.0 m^2 and 6.4 m^2, respectively. After farrowing, a heat lamp was provided on one side of the creep area for the piglets in each crate. All sows were fed a diet that met or exceeded National Research Council (NRC, 2012) nutrient requirements and water was provided ad libitum. Each litter provided at least six male and three female piglets for sampling with the exception of one sow that had 5 males and 4 females in the litter, and one sow that had 3 males and 6 females in the litter. Piglets were clinically examined and weighed on Study Day 0 prior to dosing. Cross fostering of the litters was permitted. Bodyweights were used to randomly assign sows to 1 of 4 treatment groups (n=4 sows/group) as detailed in Table 3.
# A sample size of 4 sows was selected to describe the pharmacokinetics of firocoxib. For the comparison of plasma cortisol concentrations and average daily gain in bodyweight (ADG), a sample size of 36 piglets/treatment group was calculated to provide Statistical Power of 0.8 assuming an alpha of 0.05, sigma of 0.54 and delta of 0.20. At the time of study commencement (T0), sows received a single dose of firocoxib (Equioxx Injection, Merial, Duluth, Ga.) (Lot number 4VP07, Expiration Date November 2017) administered at either 0.5 mg/kg, 1.0 mg/kg, 1.5 mg/kg, or 2.0 mg/kg by IM injection into the right lateral neck using an 18-gauge, 1.5-inch needle attached to a 20-mL syringe (Table 3). In cases where the calculated dose volume exceeded 20-mL, the remaining volume was administered via IM injection in the left lateral neck muscle.
# Blood samples for firocoxib determination were collected from the sows and three piglets/litter (two male and one female piglet at each time point) at 0, 2, 4, 6, 8, 12, 24, 48, 72, 96, and 120 h post-drug injection to the sow. The blood sample from each sow (8 mL/sample) was collected via the left or right jugular vein using a 25.4-mm, 16-gauge hypodermic needle (Air-Tite Products, Virginia Beach, Va.) attached to a 12-mL Luer-Lok syringe (TycoHealth Care, Mansfield, Mass.). During blood collection, a pig snare was used for manual restraint of each sow in her crate. The blood samples (2 mL/sample) from the piglets were collected from the left or right cranial vena cava using a 3.8-cm, 20-gauge hypodermic needle (TycoHealth Care, Mansfield, Mass.) attached to a 3-mL syringe (TycoHealth Care, Mansfield, Mass.). Physical restraint of the piglet was achieved by placing the animal in a supine position during sample collection. Blood samples were transferred to 6-mL evacuated tubes that contained lithium heparin (Vacuette plasma tubes, Greiner Bio-One, Monroe, N.C.) that were stored on ice for up to 2 h before processing. The blood samples were centrifuged for 10 min at 1,500×g. The plasma was then removed, placed in cryovials, and frozen at −80° C. until analysis. […]
compound,measurement,setting,value
CC1(C)OC(=O)C(OCC2CC2)=C1c1ccc(S(C)(=O)=O)cc1 [firocoxib],AUC(0-t),"pig, 0.5 mg/kg, sow dose 0.5 mg/kg (Table 7), read-out: Sow AUClast",1530 ng·h/mL
same,AUC(0-inf),"pig, 0.5 mg/kg, sow dose 0.5 mg/kg (Table 7), read-out: Sow AUC∞",1590 ng·h/mL
same,AUC(0-t),"pig, 0.5 mg/kg, sows, 0.5 mg/kg IM, mean, read-out: AUC0-24h",1030 ng·h/mL
same,AUC(0-t),"pig, 0.5 mg/kg, sows, 0.5 mg/kg IM, mean, read-out: AUC0-last",1530 ng·h/mL
same,AUC(0-inf),"pig, 0.5 mg/kg, sows, 0.5 mg/kg IM, mean, read-out: AUCINF",1590 ng·h/mL
same,AUC(0-t),"pig, 1 mg/kg, sow dose 1.0 mg/kg (Table 7), read-out: Sow AUClast",5330 ng·h/mL
same,AUC(0-inf),"pig, 1 mg/kg, sow dose 1.0 mg/kg (Table 7), read-out: Sow AUC∞",5620 ng·h/mL
same,AUC(0-t),"pig, 1 mg/kg, sows, 1.0 mg/kg IM, mean, read-out: AUC0-24h",2670 ng·h/mL
same,AUC(0-t),"pig, 1 mg/kg, sows, 1.0 mg/kg IM, mean, read-out: AUC0-last",5330 ng·h/mL
same,AUC(0-inf),"pig, 1 mg/kg, sows, 1.0 mg/kg IM, mean, read-out: AUCINF",5620 ng·h/mL
same,AUC(0-t),"pig, 1.5 mg/kg, sow dose 1.5 mg/kg (Table 7), read-out: Sow AUClast",8320 ng·h/mL
same,AUC(0-inf),"pig, 1.5 mg/kg, sow dose 1.5 mg/kg (Table 7), read-out: Sow AUC∞",8660 ng·h/mL
same,AUC(0-t),"pig, 1.5 mg/kg, sows, 1.5 mg/kg IM, mean, read-out: AUC0-24h",4840 ng·h/mL
same,AUC(0-t),"pig, 1.5 mg/kg, sows, 1.5 mg/kg IM, mean, read-out: AUC0-last",8320 ng·h/mL
same,AUC(0-inf),"pig, 1.5 mg/kg, sows, 1.5 mg/kg IM, mean, read-out: AUCINF",8660 ng·h/mL
same,AUC(0-t),"pig, 2 mg/kg, sow dose 2.0 mg/kg (Table 7), read-out: Sow AUClast",12700 ng·h/mL
same,AUC(0-inf),"pig, 2 mg/kg, sow dose 2.0 mg/kg (Table 7), read-out: Sow AUC∞",13700 ng·h/mL
same,AUC(0-t),"pig, 2 mg/kg, sows, 2.0 mg/kg IM, mean, read-out: AUC0-24h",6640 ng·h/mL
same,AUC(0-t),"pig, 2 mg/kg, sows, 2.0 mg/kg IM, mean, read-out: AUC0-last",12700 ng·h/mL
same,AUC(0-inf),"pig, 2 mg/kg, sows, 2.0 mg/kg IM, mean, read-out: AUCINF",13700 ng·h/mL
same,CL/F,"pig, sows, 0.5 mg/kg IM, mean",5.5 mL/min/kg
same,Cmax,"pig, sows, 0.5 mg/kg IM, mean",108 ± 15.2 ng/mL
same,MRT inf,"pig, sows, 0.5 mg/kg IM, mean",29.4 h
same,Tmax,"pig, sows, 0.5 mg/kg IM, mean",3.5 h
same,MRT last,"pig, sows, 0.5 mg/kg IM, mean",27.2 h
same,Vd/F,"pig, sows, 0.5 mg/kg IM, mean",13.8 L/kg
same,CL/F,"pig, sows, 1.0 mg/kg IM, mean",3.5 mL/min/kg
same,Cmax,"pig, sows, 1.0 mg/kg IM, mean",158 ± 24.9 ng/mL
same,MRT inf,"pig, sows, 1.0 mg/kg IM, mean",34.8 h
same,Tmax,"pig, sows, 1.0 mg/kg IM, mean",5.5 h
same,MRT last,"pig, sows, 1.0 mg/kg IM, mean",29.4 h
same,Vd/F,"pig, sows, 1.0 mg/kg IM, mean",7.82 L/kg
same,CL/F,"pig, sows, 1.5 mg/kg IM, mean",3.17 mL/min/kg
same,Cmax,"pig, sows, 1.5 mg/kg IM, mean",344 ± 78.9 ng/mL
same,MRT inf,"pig, sows, 1.5 mg/kg IM, mean",33.5 h
same,Tmax,"pig, sows, 1.5 mg/kg IM, mean",3 h
same,MRT last,"pig, sows, 1.5 mg/kg IM, mean",26.4 h
same,Vd/F,"pig, sows, 1.5 mg/kg IM, mean",9.12 L/kg
same,CL/F,"pig, sows, 2.0 mg/kg IM, mean",3 mL/min/kg
same,Cmax,"pig, sows, 2.0 mg/kg IM, mean",453 ± 90.3 ng/mL
same,MRT inf,"pig, sows, 2.0 mg/kg IM, mean",36.8 h
same,Tmax,"pig, sows, 2.0 mg/kg IM, mean",4.5 h
same,MRT last,"pig, sows, 2.0 mg/kg IM, mean",29.1 h
same,Vd/F,"pig, sows, 2.0 mg/kg IM, mean",7.75 L/kg
same,half-life,"pig, sows, 0.5-2.0 mg/kg IM",1600 to 1870 min
same,half-life,"swine, sows, 0.5-2.0 mg/kg IM",1600 to 1870 min
same,AUC_Exp,"sows, 0.5 mg/kg IM, mean",3.39%
same,AUMC,"sows, 0.5 mg/kg IM, mean",31765 h^2 × ng/mL
same,T1/2λZ,"sows, 0.5 mg/kg IM, mean",28.87 h
same,λZ,"sows, 0.5 mg/kg IM, mean",0.03 h⁻¹
same,AUC_Exp,"sows, 1.0 mg/kg IM, mean",4.15%
same,AUMC,"sows, 1.0 mg/kg IM, mean",164892 h^2 × ng/mL
same,T1/2λZ,"sows, 1.0 mg/kg IM, mean",26.70 h
same,λZ,"sows, 1.0 mg/kg IM, mean",0.03 h⁻¹
same,AUC_Exp,"sows, 1.5 mg/kg IM, mean",4.98%
same,AUMC,"sows, 1.5 mg/kg IM, mean",215365 h^2 × ng/mL
same,T1/2λZ,"sows, 1.5 mg/kg IM, mean",29.89 h
same,λZ,"sows, 1.5 mg/kg IM, mean",0.02 h⁻¹
same,AUC_Exp,"sows, 2.0 mg/kg IM, mean",5.61%
same,AUMC,"sows, 2.0 mg/kg IM, mean",392753 h^2 × ng/mL
same,T1/2λZ,"sows, 2.0 mg/kg IM, mean",31.09 h
same,λZ,"sows, 2.0 mg/kg IM, mean",0.02 h⁻¹
same,"volume of distribution, range over dose groups","sows, 0.5-2.0 mg/kg IM",7.75 to 13.8 L/kg
same,"volume of distribution in sows, fold larger than flunixin",vs flunixin (0.30 L/kg) in pigs,approximately 26 fold
same,"elimination half-life in sows, fold longer than flunixin",vs flunixin (7.5 h) in pigs,~4 fold
same,"volume of distribution in sows, fold greater than ketoprofen",vs ketoprofen (0.35 L/kg) in pigs,~22 fold
same,"elimination half-life in sows, fold longer than ketoprofen",vs ketoprofen (3 h) in pigs,approximately 10 fold
same,"volume of distribution in sows, fold greater than meloxicam",vs meloxicam (0.42 L/kg) in pigs,~18 fold
same,"elimination half-life in sows, fold longer than meloxicam",vs meloxicam (6 h) in pigs,~5 fold
